Calls of active or inactive are those of the source.
How the values were obtained:
[1] = target: Induced myeloid leukemia cell differentiation protein Mcl-1 (Homo sapiens, UniProt Q07820); type: functional
Nonstructural protein 1 = Nonstructural protein 1 (Influenza A virus, UniProt Q194T2); type: functional, Influenza A virus (A/California/07/2009(H1N1))
[2] = target: T1, Replicative DNA helicase DnaB (Mycobacterium tuberculosis, UniProt P9WMR3); test: DnaB intein splicing inhibitors, dose response, biochemical, cell-free fluorescence (AID 449749); type: functional
T1 sequence (P9WMR3 whole entry): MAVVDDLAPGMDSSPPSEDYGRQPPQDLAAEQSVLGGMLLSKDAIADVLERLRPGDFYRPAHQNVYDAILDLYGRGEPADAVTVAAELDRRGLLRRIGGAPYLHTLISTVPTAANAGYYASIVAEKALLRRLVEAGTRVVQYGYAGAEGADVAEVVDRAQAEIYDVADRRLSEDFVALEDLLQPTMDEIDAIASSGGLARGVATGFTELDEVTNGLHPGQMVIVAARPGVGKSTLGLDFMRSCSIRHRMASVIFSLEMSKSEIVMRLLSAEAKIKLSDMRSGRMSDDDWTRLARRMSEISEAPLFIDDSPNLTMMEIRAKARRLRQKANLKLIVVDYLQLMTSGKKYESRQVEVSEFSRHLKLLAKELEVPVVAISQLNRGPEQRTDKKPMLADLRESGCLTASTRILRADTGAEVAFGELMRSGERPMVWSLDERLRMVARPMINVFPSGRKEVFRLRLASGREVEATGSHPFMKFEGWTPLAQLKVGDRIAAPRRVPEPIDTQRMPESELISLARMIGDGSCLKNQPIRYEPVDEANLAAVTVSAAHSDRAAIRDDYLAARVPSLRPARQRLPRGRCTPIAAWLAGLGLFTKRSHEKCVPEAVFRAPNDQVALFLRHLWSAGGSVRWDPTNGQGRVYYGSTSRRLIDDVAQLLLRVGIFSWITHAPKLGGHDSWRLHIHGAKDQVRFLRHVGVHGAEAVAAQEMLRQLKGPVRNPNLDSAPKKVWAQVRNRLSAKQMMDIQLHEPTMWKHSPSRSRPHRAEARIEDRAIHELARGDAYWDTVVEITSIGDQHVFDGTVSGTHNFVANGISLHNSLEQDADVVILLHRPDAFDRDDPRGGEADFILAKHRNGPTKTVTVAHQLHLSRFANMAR

Protein RecA = target: T2, Protein RecA (Mycobacterium tuberculosis, UniProt P9WHJ3); test: Fluorescence Cell-Free Homogeneous Dose Retest to Identify Inhibitors of RecA-Intein Splicing Activity. [Related pubchem assays (depositor defined):AID2097, AID2223, AID489010, AID492950]; type: functional
T2 sequence (P9WHJ3 whole entry): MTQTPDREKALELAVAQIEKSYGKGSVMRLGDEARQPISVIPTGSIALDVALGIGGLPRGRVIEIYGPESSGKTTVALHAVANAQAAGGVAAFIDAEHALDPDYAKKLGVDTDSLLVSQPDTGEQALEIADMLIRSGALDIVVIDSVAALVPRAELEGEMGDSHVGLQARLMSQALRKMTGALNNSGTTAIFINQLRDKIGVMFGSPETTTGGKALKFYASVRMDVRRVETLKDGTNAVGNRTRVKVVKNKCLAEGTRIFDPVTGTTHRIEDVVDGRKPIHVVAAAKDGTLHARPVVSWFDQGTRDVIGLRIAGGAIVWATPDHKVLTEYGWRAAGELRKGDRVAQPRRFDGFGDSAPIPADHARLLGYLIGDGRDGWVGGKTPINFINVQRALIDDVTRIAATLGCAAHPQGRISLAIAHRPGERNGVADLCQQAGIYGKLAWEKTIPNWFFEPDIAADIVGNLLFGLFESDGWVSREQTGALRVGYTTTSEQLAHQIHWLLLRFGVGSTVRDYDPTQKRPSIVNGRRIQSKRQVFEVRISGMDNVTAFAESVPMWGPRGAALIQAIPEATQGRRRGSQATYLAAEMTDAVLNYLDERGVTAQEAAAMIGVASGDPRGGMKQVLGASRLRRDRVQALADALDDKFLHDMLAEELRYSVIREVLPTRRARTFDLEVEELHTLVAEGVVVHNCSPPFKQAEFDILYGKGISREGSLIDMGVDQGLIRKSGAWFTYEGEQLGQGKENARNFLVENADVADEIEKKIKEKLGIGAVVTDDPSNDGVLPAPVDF

[3] = microbe, parasite or virus in culture; type: functional; details: Mycobacterium tuberculosis
[4] = THP-1 cell cytotoxicity, dose response, cytotoxicity control for non-replicating M. tuberculosis project (AID 489025); type: functional
[5] = Luminescence Cell-Based Dose Retest to Confirm Inhibitors of Cancer Stem Cells. [Related pubchem assays (depositor defined):AID2717, AID2721]; type: functional; details: Homo sapiens
[6] = Vero E6 cell cytotoxicity, dose response, cytotoxicity control for non-replicating M. tuberculosis project, secondary assay (AID 492998); type: functional, VeroE6; details: Vero C1008
[7] = target: T3, Microphthalmia-associated transcription factor (Homo sapiens, UniProt O75030); test: reducers of TRPM1 reporter luminescence, concentration series – cell-based, SK-MEL-5, cherry-picked, set 3, MITF inhibitor project, dose response (AID 493073); type: functional;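 note: SK-MEL-5 melanoma cells with luciferase driven by the MITF target TRPM1 promoter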
T3 sequence (O75030 whole entry): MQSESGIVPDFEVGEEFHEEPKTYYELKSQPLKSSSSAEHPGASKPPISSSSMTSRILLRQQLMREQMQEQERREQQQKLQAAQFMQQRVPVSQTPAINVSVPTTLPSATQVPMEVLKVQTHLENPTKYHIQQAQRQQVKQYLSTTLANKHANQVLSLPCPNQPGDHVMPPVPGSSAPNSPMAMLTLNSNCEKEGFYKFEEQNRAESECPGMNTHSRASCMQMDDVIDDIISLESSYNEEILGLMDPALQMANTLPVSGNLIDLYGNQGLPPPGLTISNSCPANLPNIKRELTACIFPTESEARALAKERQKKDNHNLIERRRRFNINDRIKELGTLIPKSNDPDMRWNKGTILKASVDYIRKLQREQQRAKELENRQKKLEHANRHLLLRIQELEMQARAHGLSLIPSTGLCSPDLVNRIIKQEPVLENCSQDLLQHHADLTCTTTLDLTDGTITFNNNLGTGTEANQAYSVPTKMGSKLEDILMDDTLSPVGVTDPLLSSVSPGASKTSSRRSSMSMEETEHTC

cells = type: functional
Coagulation factor XII = target: T4, Coagulation factor XII (Homo sapiens, UniProt P00748); type: functional;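 note: activated factor XIIa alpha cleaving a fluorogenic AMC peptide substrate; inhibitor potency from loss of enzyme activity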
T4 sequence (P00748 whole entry): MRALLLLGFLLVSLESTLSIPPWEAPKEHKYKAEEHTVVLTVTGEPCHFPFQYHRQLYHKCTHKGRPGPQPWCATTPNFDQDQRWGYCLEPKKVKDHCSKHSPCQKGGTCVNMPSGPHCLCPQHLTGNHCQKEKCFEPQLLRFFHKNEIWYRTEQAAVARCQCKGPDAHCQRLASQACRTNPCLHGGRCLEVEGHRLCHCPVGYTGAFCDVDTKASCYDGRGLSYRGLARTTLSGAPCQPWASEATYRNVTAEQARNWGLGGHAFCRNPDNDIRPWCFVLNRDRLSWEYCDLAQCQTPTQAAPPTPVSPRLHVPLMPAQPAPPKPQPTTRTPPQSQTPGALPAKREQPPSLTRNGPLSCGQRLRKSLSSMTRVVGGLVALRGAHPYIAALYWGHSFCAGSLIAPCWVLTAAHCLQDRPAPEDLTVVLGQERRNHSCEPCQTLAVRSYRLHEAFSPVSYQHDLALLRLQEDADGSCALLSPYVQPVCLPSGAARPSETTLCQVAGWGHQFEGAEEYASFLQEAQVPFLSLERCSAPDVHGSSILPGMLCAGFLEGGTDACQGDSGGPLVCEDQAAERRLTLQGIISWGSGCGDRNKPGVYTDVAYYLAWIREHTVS

[8] = Luminescence Cell-Based Dose Confirmation HTS to Identify Activators of 5'UTR Stem-Loop Driven Alpha-Synuclein mRNA Translation in H4 Neuroglioblastoma Cells. [Related pubchem assays: 1829 (Project Summary), 1814 (Primary HTS)]; type: functional
[9] = Luminescence Cell-Based Dose Response HTS to Identify Activators of Luciferase Translation or Activity in H4 […] Cells. [Related pubchem assays: 1829 (Project Summary), 1814 (Primary HTS)]; type: functional
H4 = test: Luminescence Cell-Based Dose Response HTS to Identify Activators of 5'UTR Stem-Loop Driven Prion Protein mRNA Translation in H4 Neuroglioblastoma Cells. [Related pubchem assays: 1829 (Project Summary), 1814 (Primary HTS)]; type: functional; details: Homo sapiens
Cytochrome P450 1A2 = target: T5, Cytochrome P450 1A2 (Homo sapiens, UniProt P05177);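 note: PubChem cytochrome P450 panel assay, CYP1A2 panel member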
T5 sequence (P05177 whole entry): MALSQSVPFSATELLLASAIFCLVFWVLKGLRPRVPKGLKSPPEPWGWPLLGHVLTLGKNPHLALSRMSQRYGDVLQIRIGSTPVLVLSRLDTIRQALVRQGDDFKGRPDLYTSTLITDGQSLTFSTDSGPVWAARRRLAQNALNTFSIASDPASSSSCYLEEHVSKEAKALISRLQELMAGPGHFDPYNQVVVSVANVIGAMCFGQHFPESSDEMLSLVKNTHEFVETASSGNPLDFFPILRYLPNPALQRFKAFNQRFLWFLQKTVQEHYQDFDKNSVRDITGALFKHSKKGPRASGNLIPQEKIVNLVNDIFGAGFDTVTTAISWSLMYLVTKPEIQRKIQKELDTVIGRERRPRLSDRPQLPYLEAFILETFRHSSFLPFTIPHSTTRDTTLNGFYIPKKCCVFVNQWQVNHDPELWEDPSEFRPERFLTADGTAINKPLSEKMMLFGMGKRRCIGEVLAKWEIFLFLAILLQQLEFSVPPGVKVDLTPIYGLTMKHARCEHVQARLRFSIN

Cytochrome P450 3A4 = Cytochrome P450 3A4 (Homo sapiens, UniProt P08684);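 note: CYP3A4 tested as one member of a cytochrome P450 panel screen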
Cytochrome P450 3A4, sequence (P08684 whole entry): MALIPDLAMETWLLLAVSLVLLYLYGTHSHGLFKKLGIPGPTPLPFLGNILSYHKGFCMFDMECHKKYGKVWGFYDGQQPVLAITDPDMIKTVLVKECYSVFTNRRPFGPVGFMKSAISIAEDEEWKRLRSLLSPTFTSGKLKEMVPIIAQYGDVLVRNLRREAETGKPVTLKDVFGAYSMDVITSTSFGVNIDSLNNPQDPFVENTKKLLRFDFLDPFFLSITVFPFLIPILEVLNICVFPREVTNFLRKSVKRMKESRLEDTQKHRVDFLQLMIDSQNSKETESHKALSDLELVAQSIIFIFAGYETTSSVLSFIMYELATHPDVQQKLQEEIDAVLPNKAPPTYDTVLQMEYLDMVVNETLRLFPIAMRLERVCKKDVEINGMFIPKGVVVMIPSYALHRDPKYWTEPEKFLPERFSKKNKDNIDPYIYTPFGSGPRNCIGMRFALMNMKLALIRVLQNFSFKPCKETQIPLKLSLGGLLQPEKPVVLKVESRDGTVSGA

[10] = Trypanosoma cruzi growth suppression in host cells – NIH3T3 host cells, beta-gal luminescence, confirmation (AID 2044); type: functional, cell-based;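 note: intracellular parasites grown in NIH/3T3 mouse fibroblasts as host cells; luminescent beta-galactosidase reporter signal from transgenic T. cruzi replicating inside host cells; inhibitors lower the luminescence signal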
[11] = NIH3T3 cell viability loss – ATP luminescence, mouse fibroblasts, counter-screen, dose response (AID 2010); type: functional, cell-based;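 note: cells exposed to compound for about 90 hours before reading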
[12] = target: DNA dC->dU-editing enzyme APOBEC-3A (Homo sapiens, UniProt P31941); test: Dose Response confirmation of small molecule APOBEC3A DNA Deaminase Inhibitors via a fluorescence-based single-stranded DNA deaminase assay. [Related pubchem assays (depositor defined):AID493011, AID493024]; type: functional
DNA dC->dU-editing enzyme APOBEC-3A, sequence (P31941 whole entry): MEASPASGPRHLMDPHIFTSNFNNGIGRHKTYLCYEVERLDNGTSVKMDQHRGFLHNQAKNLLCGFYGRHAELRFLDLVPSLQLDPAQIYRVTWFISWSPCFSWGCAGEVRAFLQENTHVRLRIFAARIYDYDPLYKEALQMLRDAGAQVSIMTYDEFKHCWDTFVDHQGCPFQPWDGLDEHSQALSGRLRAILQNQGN

[13] = target: DNA dC->dU-editing enzyme APOBEC-3G (Homo sapiens, UniProt Q9HC16); type: functional;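 note: Dose-response counterscreen measuring inhibition of APOBEC3G DNA deaminase activity, run while confirming APOBEC3A inhibitors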
DNA dC->dU-editing enzyme APOBEC-3G, sequence (Q9HC16 whole entry): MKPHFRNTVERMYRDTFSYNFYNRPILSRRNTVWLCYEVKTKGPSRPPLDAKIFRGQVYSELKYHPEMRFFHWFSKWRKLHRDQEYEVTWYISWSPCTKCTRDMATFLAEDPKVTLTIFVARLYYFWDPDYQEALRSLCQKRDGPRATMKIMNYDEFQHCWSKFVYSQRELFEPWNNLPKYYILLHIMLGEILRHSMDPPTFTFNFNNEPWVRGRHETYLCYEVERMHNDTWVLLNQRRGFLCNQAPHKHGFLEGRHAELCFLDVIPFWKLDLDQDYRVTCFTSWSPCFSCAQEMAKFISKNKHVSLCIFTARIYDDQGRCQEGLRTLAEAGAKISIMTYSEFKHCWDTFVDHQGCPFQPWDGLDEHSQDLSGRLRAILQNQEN

[14] = viability of uninfected HEp-2 cells – cell-based, HTS, cytotoxicity control for RSV inhibitor project, dose response (AID 2410); type: functional; details: human respiratory syncytial virus
[15] = viability of PTEN-deleted HCT116 cells – cell-based, HCT116 PTEN knockout, dose response (AID 1047); type: functional;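 note: HCT116 colon tumor cells with PTEN knocked out; cells exposed to compound for 60 hours before readout; potency for loss of cell viability measured by luminescence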
[16] = viability of HCT116 lacking mutant beta-catenin – cell-based, human colon tumor, dose response (AID 1045); type: functional;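 note: HCT116 colon tumor cells with beta catenin knocked out; cells exposed to compound for 60 hours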
[17] = target: T6, Ubiquitin-conjugating enzyme E2 N (Homo sapiens, UniProt P61088); type: functional;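 note: Dose-response confirmation in a TR-FRET assay detecting UBC13-driven polyubiquitin chain formation, inhibition measured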
T6 sequence (P61088 whole entry): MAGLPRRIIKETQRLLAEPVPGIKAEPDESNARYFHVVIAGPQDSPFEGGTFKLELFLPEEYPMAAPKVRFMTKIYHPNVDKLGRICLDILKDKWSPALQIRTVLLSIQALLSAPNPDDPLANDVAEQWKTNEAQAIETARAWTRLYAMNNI

Nonstructural protein 1, sequence (Q194T2 whole entry): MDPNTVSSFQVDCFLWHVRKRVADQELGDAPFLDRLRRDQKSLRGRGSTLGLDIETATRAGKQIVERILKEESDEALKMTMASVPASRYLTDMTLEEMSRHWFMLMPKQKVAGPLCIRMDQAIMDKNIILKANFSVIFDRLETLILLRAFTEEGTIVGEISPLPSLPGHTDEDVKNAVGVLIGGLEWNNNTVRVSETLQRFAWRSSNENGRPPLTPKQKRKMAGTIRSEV
Induced myeloid leukemia cell differentiation protein Mcl-1, sequence (Q07820 whole entry): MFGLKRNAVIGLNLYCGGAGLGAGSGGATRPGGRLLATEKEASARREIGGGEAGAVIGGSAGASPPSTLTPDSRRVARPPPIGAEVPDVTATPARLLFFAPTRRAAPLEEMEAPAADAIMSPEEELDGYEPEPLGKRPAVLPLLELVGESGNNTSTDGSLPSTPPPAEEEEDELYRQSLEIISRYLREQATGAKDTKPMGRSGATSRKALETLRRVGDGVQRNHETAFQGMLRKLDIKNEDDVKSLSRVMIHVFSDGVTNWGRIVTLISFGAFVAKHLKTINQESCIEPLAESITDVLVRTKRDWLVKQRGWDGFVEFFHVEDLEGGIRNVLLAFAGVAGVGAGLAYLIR

## c1cncc(C2Nc3cccc4cccc(c34)N2)c1
[1]
  IC50: 9.59 µM (active)
Nonstructural protein 1
  IC50: > 100 µM (active)

## Cc1ccc(C)c(NC(=O)CSc2n[nH]c(-c3ccccn3)n2)c1
Nonstructural protein 1
  IC50: 5.46 µM (active)
[2]
  AC50: 163 µM (active)
Protein RecA
  EC50: > 380 µM (inactive)

## COc1ccccc1OCCN1CSC(=S)N(C)C1
[3]
  CC50: 7.54 µM (active)
[4]
  CC50: 6.71 µM (active)
[5]
  AC50: 2.4 µM (active)
[6]
  CC50: 5.83 µM (active)
[7]
  AC50: 12.2 µM (active)
cells
  IC50: 6.69 µM (active)

## Nc1n[nH]c(SCn2nnc3ccccc3c2=O)n1
Coagulation factor XII
  IC50: > 50 µM (inactive)

## NNC(=O)c1ccc(CSc2nc3ccccc3s2)cc1
Coagulation factor XII
  IC50: > 50 µM (inactive)

## CCc1nnc(NC(=O)c2cc(-c3ccccc3)nn2-c2ccccc2)s1
[8]
  EC50: > 120 µM (not active)
[9]
  EC50: 7.74 µM (active)
H4
  EC50: > 120 µM (not active)
Cytochrome P450 1A2
  AC50: 15.8 µM (inconclusive)
Cytochrome P450 3A4
  AC50: inconclusive

## Cc1ccc(C(=O)C(=O)c2ccc(C)c(N)c2)cc1N
Coagulation factor XII
  IC50: 15.7 µM (active)

## CC(=O)N1CCC2(CC1)CN(C(c1ccccc1)c1ccccc1)C2
Cytochrome P450 3A4
  AC50: inconclusive

## COc1ccc(CNC(=O)C2CSC(=O)C2)cc1 (stereo unspecified)
[10]
  EC50: > 30 µM (not active)
[11]
  EC50: 10.3 µM (active)
Cytochrome P450 3A4
  AC50: inconclusive

## CC1CCCC(C2(O)C(=O)Nc3ccccc32)C1=O (stereo unspecified)
[12]
  IC50: 5.46 µM (active)
[13]
  IC50: 5.64 µM (active)

## CCCN(C/C=C\I)[C@@H]1CCc2cccc(O)c2C1
Cytochrome P450 3A4
  AC50: inconclusive

## CCN1C(NCCOC)=N[C@@H](c2cccc(C(F)(F)F)c2)C(C(=O)OC)=C1C
[12]
  IC50: 2.09 µM (active)
[13]
  IC50: 1.95 µM (active)

## CCCCCCCSc1cc(OC)c(CCN(C)C)cc1OC
[14]
  CC50: 21.3 µM (active)
[15]
  EC50: 9.16 µM (active)
[16]
  EC50: 7.83 µM (active)
[17]
  IC50: > 20 µM (inactive)
Nonstructural protein 1
  IC50: 44.4 µM (active)

## COc1ccc(/C=C2/SC(=S)N(n3c(C)ccc3C)C2=O)cc1
Coagulation factor XII
  IC50: > 50 µM (inactive)

## O=C(NC(=S)N1CCN(Cc2ccc3c(c2)OCO3)CC1)c1ccc(Cl)cc1
[6]
  CC50: 19.2 µM (active)
cells
  IC50: 18.1 µM (active)

Source: ChEMBL document CHEMBL1201862, “PubChem BioAssay data set” (2004)
